Measured values reported in patent US6723720B2, “Pesticidal triazine-derivatives” (Novartis Animal Health US, Inc., priority 1999, dated 2004).

melting point: 159 to 160 °C
SMILES: Fc1cccc(F)c1-c1cnnc(-c2ccc(-c3ccc(OC(F)(F)F)cc3)cc2)n1 [Example 1.6, 5-(2,6-Difluorophenyl)-3-(4′-trifluoromethoxybiphenyl-4-yl)-[1,2,4]triazine]
